According to patent US4812473A, “1,5-Disubstituted imidazoles as inhibitors of juvenile hormone” (Earth Chemical Co., Ltd., priority 1986, dated 1989):

What was measured:
[1] = tested on: 4th-instar household silkworm larvae; assay: Anti-JH Activity Test II: anti-JH activity value (ED50); assay type: in vivo, Bombyx mori; settings: 4th-instar larvae, dropwise application
Procedure: (§1) The compound (test preparation) of the present invention diluted with acetone to the predetermined concentration was applied dropwise, in an amount of 1 to 4 μper larva, to the abdomen and the back of third- or fourth-instar larvae (those living for 0 to 8 hours after ecdysis) of household silkworms (Bombyx mori) raised in a room and fed on mulberry leaves. Immediately after treatment, the larvae were placed into a plastics case and reared by being fed on mulberry leaves until they started spinning cocoons. The anti-JH activity was evaluated in terms of the percentage (%) of presence of larvae (premature larvae) which began to spin cocoons at the 4th-instar stage without undergoing the 5th-instar moult. The test larvae treated with each test preparation in each group numbered 20. The test larvae in the control group treated with acetone in lieu of the test compound all commenced cocooning after the 5th-instar moult.
After the test compound diluted to the predetermined concentration was applied dropwise to 4th-instar household silkworm larvae in the same manner as in Anti-JH Activity Test I as described above, the larvae thus treated were reared until they started cocooning. The number of larvae which began to cocoon at the 4th-instar stage without undergoing the 5th-instar moult were counted to determine the percentage (%) of presence of larvae (premature larvae). Then the concentration of test preparation which induced 50% presence was determined and indicated as an anti-JH activity value (ED50).

anti-JH activity = assay: Inhibition of the anti-JH activity of the compound of Example 1 by methoprene, a JH-active substance; settings: in vivo
Procedure: Investigation was conducted to determine whether the activity of the foregoing compound of the invention can be inhibited by methoprene which is a JH-active substance. […] [Anti-JH Activity Test II]

[2] = tested on: household silkworms (Bombyx mori) larvae; assay: Anti-JH Activity Test I: activity to induce premature metamorphosis; assay type: in vivo
Procedure: as §1

SMILES | ED50 (anti-JH activity value, 50% presence of premature larvae) [1] | other results
CC(C)=CCC/C(C)=C/c1cncn1C1CCCC1 [Example 12, 1-cyclopentyl-5-[(E)-2,6-dimethyl-1,5-heptadienyl]imidazole] | 3.6 μg/larva | –
CCCCCn1cncc1/C=C(\C)CCC=C(C)C [Example 6, 1-amyl-5-[(E)-2,6-dimethyl-1,5-heptadienyl]imidazole] | 2.4 μg/larva | –
CCC(C)n1cncc1/C=C(\C)CCC=C(C)C (stereo not drawn) [Example 10, 1-sec-butyl-5-[(E)-2,6-dimethyl-1,5-heptadienyl]imidazole] | 1.9 μg/larva | –
CC(C)=CCC/C(C)=C/c1cncn1CCC(C)C [Example 11, 1-isoamyl-5-[(E)-2,6-dimethyl-1,5-heptadienyl]imidazole] | 3.5 μg/larva | –
CCCn1cncc1/C=C(\C)CCC=C(C)C [Example 4, 1-propyl-5-[(E)-2,6-dimethyl-1,5-heptadienyl]imidazole] | 3.5 μg/larva | –
CC(C)=CCC/C(C)=C/c1cncn1C1CCCCC1 [Example 13, 1-cyclohexyl-5-[(E)-2,6-dimethyl-1,5-heptadienyl]imidazole] | 6.6 μg/larva | –
CCCCn1cncc1/C=C(\C)CCC=C(C)C [Example 5, 1-butyl-5-[(E)-2,6-dimethyl-1,5-heptadienyl]imidazole] | 3.1 μg/larva | –
CCn1cncc1/C=C(\C)CCC=C(C)C [Example 3, 1-ethyl-5-[(E)-2,6-dimethyl-1,5-heptadienyl]imidazole] | 5.8 μg/larva | –
CC(C)=CCC/C(C)=C/c1cncn1CC(C)C [Example 9, 1-isobutyl-5-[(E)-2,6-dimethyl-1,5-heptadienyl]imidazole] | 1.8 μg/larva | –
CCCCCCn1cncc1/C=C(\C)CCC=C(C)C [Example 7, 1-hexyl-5-[(E)-2,6-dimethyl-1,5-heptadienyl]imidazole] | 4.2 μg/larva | –
COC(C)(C)CCC[C@H](C)C/C=C/C(C)=C/C(=O)OC(C)C (racemic) [methoprene] | – | inhibition by methoprene of the activity of the compound of the invention (Example 1) (anti-JH activity): completely inhibited
CC(C)=CCC/C(C)=C/c1cncn1C [Example 2, 1-methyl-5-[(E)-2,6-dimethyl-1,5heptadienyl]-imidazole] | 17.5 μg/larva | –
CC(C)CCCC(C)Cc1cncn1Cc1ccccc1 (stereo not drawn) [Example 1, 1-benzyl-5-(2,6-dimethylheptyl)imidazole] | 1.4 μg/larva | Activity to induce premature metamorphosis ([2]; 3rd-instar larvae, dosage 0.5 μg/larva): 10%; Activity to induce premature metamorphosis ([2]; 3rd-instar larvae, dosage 1 μg/larva): 70%; Activity to induce premature metamorphosis ([2]; 3rd-instar larvae, dosage 2 μg/larva): 100%; Activity to induce premature metamorphosis ([2]; 4th-instar larvae, dosage 1 μg/larva): 20%; Activity to induce premature metamorphosis ([2]; 4th-instar larvae, dosage 2 μg/larva): 100%; Activity to induce premature metamorphosis ([2]; 4th-instar larvae, dosage 10 μg/larva): 100%; anti-JH activity (in words) ([2]; conclusion from Table 1): had an anti-JH activity
CC(C)=CCC/C(C)=C/c1cncn1C(C)C [Example 8, 1-isopropyl-5-[(E)-2,6-dimethyl-1,5-heptadienyl]imidazole] | 6.4 μg/larva | –
